From patent publication US9079887B2, “Antiviral compounds” (priority 2012, dated 2015)
Read-outs that look alike come from different tables or passages of the source.

Tests used:
Assay type in all cases: cell-based
[1] = tested on: stable HCV 3a RLuc replicon cells (genotype 3a S52 replicon); assay: HCV replicon assay, genotype 3a (stable); details: Hepatitis C virus
Experimental: (§1) Antiviral potency (EC50) was determined using a Renilla luciferase (RLuc)-based HCV replicon reporter assay. To perform the assay for genotype 1 and 2a JFH-1, stable HCV 1a RLuc replicon cells (harboring a dicistronic genotype 1a H77 replicon that encodes a RLuc reporter), stable HCV 1b RLuc replicon cells (harboring a dicistronic genotype 1b Con1 replicon that encodes a RLuc reporter), or stable HCV 2a JFH-1 Rluc replicon cells (harboring a dicistronic genotype 2a JFH-1 replicon that encodes a RLuc reporter; with L31 present in NS5A) were dispensed into 384-well plates for EC50 assays. To perform the assay for genotype 2a (with M31 present in NS5A) or 2b, NS5A chimeric genotype 2a JFH-1 replicons that encodes a RLuc-Neo reporter and either genotype 2a J6 strain NS5A gene or genotype 2b MD2b-1 strain NS5A gene (both with M31 present) respectively, were either transiently transfected (t) into Huh-Lunet cells or were established as stably replicating replicon cells (s). Either cells were dispensed into 384-well plates for EC50 assays. To perform the assay for genotype 3 and 4, NS5A chimeric genotype 1b Con1 replicons that encodes a Pi-RLuc reporter and either genotype 3a S52 strain NS5A gene or genotype 4a ED43 strain NS5A gene respectively, were transiently transfected (t) into Huh-Lunet cells, which were subsequently dispensed into 384-well plates. Alternatively, stable HCV 3a RLuc replicon cells (s) (harboring a dicistronic genotype 3a S52 replicon that encodes an RLuc reporter), or stable HCV 4a RLuc replicon cells (s) (harboring a dicistronic genotype 4a ED43 replicon that encodes a RLuc reporter) were established in Huh-7-derived cells and dispensed into 384-well plates for EC50 assays. Compounds were dissolved in DMSO at a concentration of 10 mM and diluted in DMSO either manually or using an automated pipeting instrument. Serially 3-fold diluted compounds were either manually mixed with cell culture media and added to the seeded cells or directly added to the cells using an automated instrument. DMSO was used as a negative (solvent; no inhibition) control, and the protease inhibitor ITMN-191 was included at a concentration >100×EC50 as a positive control. 72 hours later, cells were lysed and Renilla luciferase activity quantified as recommended by the manufacturer (Promega-Madison, Wis.). Non-linear regression was performed to calculate EC50 values.

[2] = tested on: stable HCV 1a RLuc replicon cells (genotype 1a H77 replicon); assay: HCV replicon RLuc reporter assay, genotype 1a; details: Hepatitis C virus, genotype 1a replicon
Experimental: as §1

[3] = tested on: stable HCV 4a RLuc replicon cells (genotype 4a ED43 replicon); assay: HCV replicon assay, genotype 4a (stable); details: Hepatitis C virus
Experimental: as §1

[4] = HCV replicon assay, genotype 2b (stable); details: Hepatitis C virus, genotype 2a / genotype 2b
Experimental: as §1

[5] = tested on: stable HCV 1b RLuc replicon cells (genotype 1b Con1 replicon); assay: HCV replicon RLuc reporter assay, genotype 1b; details: Hepatitis C virus; genotype 1b replicon, 72 hours
Experimental: as §1

[6] = tested on: stable HCV 2a JFH-1 Rluc replicon cells (L31 present in NS5A); assay: HCV replicon RLuc reporter assay, genotype 2a JFH-1; details: Hepatitis C virus
Experimental: as §1

[7] = HCV replicon assay, genotype 2a J6 (transient); details: Hepatitis C virus
Experimental: as §1

Structure (SMILES)	EC50 ([1]; read-out: 3a (s)) [nM]	EC50 ([1]; read-out: 3a (s) (nM)) [nM]	EC50 [2] [nM]	EC50 ([2]; activity range) [nM]	EC50 ([3]; read-out: 4a (s)) [nM]	EC50 ([3]; read-out: 4a (s) (nM)) [nM]	EC50 ([4]; 2BS, read-out: 2b (s)) [nM]	EC50 ([4]; read-out: 2b (s) (nM)) [nM]	EC50 [5] [nM]	EC50 ([6]; read-out: 2a JFH) [nM]	EC50 ([6]; read-out: 2a JFH (nM)) [nM]	EC50 ([7]; read-out: 2a J6 (t)) [nM]	EC50 ([7]; read-out: 2a J6 (t) (nM)) [nM]
COC[C@H]1C[C@@H](c2ncc(-c3ccc(-c4ccc(-c5[nH]c([C@@H]6CC[C@H](C)N6C(=O)[C@@H](NC(=O)OC)C(C)C)nc5Cl)cc4)cc3)[nH]2)N(C(=O)[C@@H](NC(=O)OC)C(C)C)C1 [AH, Methyl (S)-1-((2S,4S)-2-(5-(4′-(4-chloro-2-((2S,4S)-1-((R)-2-(methoxycarbonylamino)-3-methylbutanoyl)-5-methylpyrrolidin-2-yl)-1H-imidazol-5-yl)biphenyl-4-yl)-1H-imidazol-2-yl)-4-(methoxymethyl)pyrrolidin-1-yl)-3-methyl-1-oxobutan-2-ylcarbamate]	1 to 44	36.5	0.037	< 0.1	< 0.1	0.02	1 to 44	7.3	0.04	< 0.1	0.066	–	–
COC[C@H]1C[C@@H](c2nc(Cl)c(-c3ccc(-c4ccc(-c5cnc([C@@H]6CC[C@H](C)N6C(=O)[C@@H](NC(=O)OC)C(C)C)[nH]5)cc4)cc3)[nH]2)N(C(=O)[C@@H](NC(=O)OC)C(C)C)C1 [AI, Methyl (S)-1-((2S,4S)-2-(4-chloro-5-(4′-(2-((2S,4S)-1-((R)-2-(methoxycarbonylamino)-3-methylbutanoyl)-5-methylpyrrolidin-2-yl)-1H-imidazol-5-yl)biphenyl-4-yl)-1H-imidazol-2-yl)-4-(methoxymethyl)pyrrolidin-1-yl)-3-methyl-1-oxobutan-2-ylcarbamate]	1 to 44	40.8	0.034	< 0.1	< 0.1	0.018	1 to 44	5.08	0.028	< 0.1	0.075	–	–
COC[C@H]1C[C@@H](c2nc(Cl)c(-c3ccc(-c4ccc(-c5[nH]c([C@@H]6CC[C@H](C)N6C(=O)[C@@H](NC(=O)OC)C(C)C)nc5Cl)cc4)cc3)[nH]2)N(C(=O)[C@@H](NC(=O)OC)C(C)C)C1 [Example AG, Methyl (S)-1-((2S,4S)-2-(4-chloro-5-(4′-(4-chloro-2-((2S,4S)-1-((R)-2-(methoxycarbonylamino)-3-methylbutanoyl)-5-methylpyrrolidin-2-yl)-1H-imidazol-5-yl)biphenyl-4-yl)-1H-imidazol-2-yl)-4-(methoxymethyl)pyrrolidin-1-yl)-3-methyl-1-oxobutan-2-ylcarbamate]	1 to 44	17.6	0.022	< 0.1	< 0.1	0.011	1 to 44	2.56	0.019	< 0.1	0.05	–	–
COC[C@H]1C[C@@H](c2ncc(-c3ccc(-c4ccc(-c5cnc([C@@H]6CC[C@H](C)N6C(=O)[C@@H](NC(=O)OC)C6CCOCC6)[nH]5)cc4)cc3)[nH]2)N(C(=O)[C@@H](NC(=O)OC)C2CCOCC2)C1 [Example AJ, Methyl [(1S)-2-{(2S,5S)-2-[5-(4′-{2-[(2S,4S)-1-[(2S)-2-[(methoxycarbonyl)amino]-2-(tetrahydro-2H-pyran-4-yl)acetyl]-4-(methoxymethyl)pyrrolidin-2-yl]-1H-imidazol-5-yl}biphenyl-4-yl)-1H-imidazol-2-yl]-5-methylpyrrolidin-1-yl}-2-oxo-1-(tetrahydro-2H-pyran-4-yl)ethyl]carbamate]	1 to 44	1.34	0.186	0.1 to 0.999	0.1 to 0.999	0.133	0.1 to 0.999	0.672	0.384	< 0.1	0.079	0.1 to 0.999	0.155
COC[C@H]1C[C@@H](c2ncc(-c3ccc(-c4ccc(-c5cnc([C@@H]6CC[C@H](C)N6C(=O)[C@@H](NC(=O)OC)C6CCOCC6)[nH]5)cc4)cc3)[nH]2)N(C(=O)[C@@H](NC(=O)OC)C(C)C)C1 [Example AL, Methyl {(2S)-1-[(2S,4S)-2-{5-[4′-(2-{(2S,5S)-1-[(2S)-2-[(methoxycarbonyl)amino]-2-(tetrahydro-2H-pyran-4-yl)acetyl]-5-methylpyrrolidin-2-yl}-1H-imidazol-5-yl)biphenyl-4-yl]-1H-imidazol-2-yl}-4-(methoxymethyl)pyrrolidin-1-yl]-3-methyl-1-oxobutan-2-yl}carbamate]	1 to 44	2.14	0.052	< 0.1	< 0.1	0.04	1 to 44	2.17	0.074	< 0.1	0.035	< 0.1	0.084
COC[C@H]1C[C@@H](c2ncc(-c3ccc(-c4ccc(-c5cnc([C@@H]6CC[C@H](C)N6C(=O)[C@@H](NC(=O)OC)C(C)C)[nH]5)cc4)cc3)[nH]2)N(C(=O)[C@@H](NC(=O)OC)C2CCOCC2)C1 [Example AN, Methyl [(1S)-2-[(2S,4S)-2-[5-(4′-{2-[(2S,5S)-1-{(2S)-2-[(methoxycarbonyl)-amino]-3-methylbutanoyl}-5-methylpyrrolidin-2-yl]-1H-imidazol-5-yl}biphenyl-4-yl)-1H-imidazol-2-yl]-4-(methoxymethyl)pyrrolidin-1-yl]-2-oxo-1-(tetrahydro-2H-pyran-4-yl)ethyl]carbamate]	1 to 44	2.19	0.037	< 0.1	< 0.1	0.035	1 to 44	2.14	0.065	< 0.1	0.027	0.1 to 0.999	0.207
